In patent US20180228861A1, “COMPOSITION FOR TREATING DIABETES AND DYSLIPIDEMIA OBTAINED FROM THE EXTRACT OF COSTUS PICTUS D.DON PLANT AND A METHOD OF PREPARING THE SAME” (ARJUNA NATURAL EXTRACTS, LTD., priority 2012, published 2018):

Columns and labels:
Assay type in all cases: in vivo
[1] = test system: high fat diet-induced insulin resistance model with C57/BL 6J mice; assay: Body weight in high fat diet-induced insulin resistance model
Description: Evaluation of effect of different fractions of Costus pictus D. Don on high fat diet-induced insulin resistance model with C57/BL 6J mice.
(§1) The study was designed to evaluate the effect of different fractions of Costus pictus D. Don on high fat-induced resistance Type 2diabetic model (HFD). Six week-old C57B1/6J mice were allowed free access to food and water. They were housed under identical standard conditions. The animals were kept for acclimatization for a period of 7 days. After 7 days, the mice were randomly divided into six groups of six mice each. The normal control group was treated with normal regular diet and the rest of the animals were fed with high fat diet for 6 weeks. After 6 weeks, methanolic extract of fresh leaves of Costus pictus D. Don, and the extract had low oxalic acid and/or oxalates content, silica purified ethyl acetate extract of methanolic extract of fresh leaves of Costus pictus D. Don where the extract had low oxalic acid and/or oxalates content and ethyl acetate extract of 90% methanolic extract of fresh leaves of Costus pictus D. Don where the extract had low oxalic acid and/or oxalates content were administered at 40 mg/kg p.o. for 6 consecutive weeks. The experimental design was as follows:
Group 3—HFD for 6 weeks and Standard drug treated group for 6 weeks—metformin.
Group 4—HFD for 6 weeks and methanolic extract of fresh leaves of Costus pictus D. Don where the extract had low oxalic acid and/or oxalates content (Sample 2 prepared as per example 1) at 40 mg/kg orally for 6 weeks.
Group 5—HFD for 6 weeks and silica purified ethyl acetate extract of 90% methanolic extract of fresh leaves of Costus pictus D. Don where the extract had low oxalic acid and/or oxalates content (Sample 5 prepared as per example 4) at 40 mg/kg orally for 6 weeks.
Group 6—HFD for 6 weeks and ethyl acetate extract of 90% methanol extract of fresh leaves of Costus pictus D. Don where the extract had low oxalic acid and/or oxalates content (Sample 4 prepared as per example 3) at 40 mg/kg orally for 6 weeks.
(§2) Body weights were determined biweekly. At the end of experimental period, blood samples were collected to determine plasma glucose, insulin, leptin, glycosylated hemoglobin, triglycerides, total cholesterol, LDL, HDL and VLDL.

[2] = test system: high fat diet-induced insulin resistance model with C57/BL 6J mice; assay: Lipid profile in high fat diet-induced insulin resistance model; conditions: high fat diet induced diabetes mellitus, extracts 40 mg/kg orally for 6 weeks, metformin as standard drug
Procedure: The study was designed to evaluate the effect of different fractions of Costus pictus D. Don on high fat-induced resistance Type 2diabetic model (HFD). Six week-old C57B1/6J mice were allowed free access to food and water. They were housed under identical standard conditions. The animals were kept for acclimatization for a period of 7 days. After 7 days, the mice were randomly divided into six groups of six mice each. The normal control group was treated with normal regular diet and the rest of the animals were fed with high fat diet for 6 weeks. […] The experimental design was as follows:
as §2

[3] = test system: high fat diet-induced insulin resistance model with C57/BL 6J mice; assay: Serum insulin and glycosylated hemoglobin in high fat diet-induced insulin resistance model; conditions: high fat diet induced diabetes mellitus, extracts 40 mg/kg orally for 6 weeks, metformin as standard drug
Procedure: as §1, §2

[4] = test system: high fat diet-induced insulin resistance model with C57/BL 6J mice; assay: Blood glucose in high fat diet-induced insulin resistance model; conditions: HFD mice, end of experimental period; extracts 40 mg/kg orally for 6 weeks, metformin as standard drug
Procedure: as §1, §2

For `CN(C)C(=N)N=C(N)N` [metformin], the “Body weight, week 0” value ([1]; C57/BL 6J mice on high fat diet, week 0, before treatment) was 15 grams, the “Body weight, week 2” value ([1]; C57/BL 6J mice on high fat diet, week 2, before treatment) was 30 grams and the “Body weight, week 4” value ([1]; C57/BL 6J mice on high fat diet, week 4, before treatment) was 46 grams. For the same compound, the “Body weight, week 6” value ([1]; C57/BL 6J mice on high fat diet, week 6, start of treatment) was 61 grams, the “Body weight, week 8” value ([1]; HFD mice, week 8, extracts 40 mg/kg orally from week 6, metformin as standard drug) was 48 grams and the “Body weight, week 10” value ([1]; HFD mice, week 10, extracts 40 mg/kg orally from week 6, metformin as standard drug) was 35 grams. For the same compound, the “Body weight, week 12” value ([1]; HFD mice, week 12, extracts 40 mg/kg orally from week 6, metformin as standard drug) was 35 grams, the HDL [2] was 99 mg/dL and the LDL [2] was 17 mg/dL. The VLDL [2] was 6 mg/dL, the TC ([2]; total cholesterol) was 122 mg/dL and the TG ([2]; triglycerides) was 30 mg/dL. For the same compound, the “Glycosylated Hb” value [3] was 0.5 % of total Hb, the Insulin ([3]; serum) was 1.7 ng/mL and the Blood glucose [4] was 100 mg/dL.
